Measured values: US20250115600A1, “COVALENT MODIFIERS OF AKT1 AND USES THEREOF” (Terremoto Biosciences, Inc., priority 2022, published 2025)

Key:
Assay in all cases: Live cell target engagement (NanoBRET) in HEK293 cells
Type in all cases: cell-based
AKT1 E17K = AKT1 E17K (Homo sapiens (Human), UniProt P31749, E17K); conditions: for IC50: HEK293, 2 hours at 37° C.
AKT1 WT = AKT1 WT (Homo sapiens (Human), UniProt P31749); conditions: HEK293, 2 hours at 37° C.
AKT2 = AKT2 (Homo sapiens (Human), UniProt P31751); conditions: HEK293, 2 hours at 37° C.
Chain of AKT2 (P31751 whole entry): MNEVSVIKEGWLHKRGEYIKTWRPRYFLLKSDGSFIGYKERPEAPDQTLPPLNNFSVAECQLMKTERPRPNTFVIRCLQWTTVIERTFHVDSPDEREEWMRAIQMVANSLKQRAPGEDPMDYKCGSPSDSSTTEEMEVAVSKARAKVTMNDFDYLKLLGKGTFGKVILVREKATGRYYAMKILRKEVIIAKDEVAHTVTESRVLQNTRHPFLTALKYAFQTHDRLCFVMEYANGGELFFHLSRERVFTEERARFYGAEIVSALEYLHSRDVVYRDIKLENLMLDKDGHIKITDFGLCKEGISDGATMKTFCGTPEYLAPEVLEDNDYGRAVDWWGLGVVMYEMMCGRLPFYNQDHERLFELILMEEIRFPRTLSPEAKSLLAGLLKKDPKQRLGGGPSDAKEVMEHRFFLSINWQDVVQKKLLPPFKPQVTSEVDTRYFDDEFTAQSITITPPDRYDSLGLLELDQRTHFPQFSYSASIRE

Chain of AKT1 E17K (P31749 whole entry E17K): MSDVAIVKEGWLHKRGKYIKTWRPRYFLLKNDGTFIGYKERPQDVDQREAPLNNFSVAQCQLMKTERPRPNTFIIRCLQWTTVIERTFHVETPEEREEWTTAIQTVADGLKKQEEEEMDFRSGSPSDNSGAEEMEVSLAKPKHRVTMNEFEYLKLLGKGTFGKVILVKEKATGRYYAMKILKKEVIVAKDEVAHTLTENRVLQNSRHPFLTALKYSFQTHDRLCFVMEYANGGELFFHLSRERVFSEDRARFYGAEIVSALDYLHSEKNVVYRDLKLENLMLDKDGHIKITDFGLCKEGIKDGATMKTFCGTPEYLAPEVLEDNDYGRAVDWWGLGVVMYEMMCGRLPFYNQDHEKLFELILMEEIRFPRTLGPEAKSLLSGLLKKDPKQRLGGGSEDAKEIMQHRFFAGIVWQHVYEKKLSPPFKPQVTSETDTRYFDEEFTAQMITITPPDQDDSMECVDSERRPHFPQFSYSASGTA
Chain of AKT1 WT (P31749 whole entry): as the sequence (P31749 whole entry E17K) above, with K17E counted along it

Row | Structure (SMILES) | AKT1 E17K IC50: Selectivity vs AKT1 WT (AKT1 E17K) | AKT1 E17K IC50: Selectivity vs AKT2 (AKT1 E17K) | IC50 (AKT1 E17K) | IC50 (AKT1 WT) | IC50 (AKT2)
1 | Nc1ncccc1-c1nc2ccc(-c3ccccc3)nc2n1-c1ccc(C(=O)NCc2ccc(C=O)c(O)c2)cc1 [Compound 137, 4-(2-(2-aminopyridin-3-yl)-5-phenyl-3H-imidazo[4,5-b]pyridin-3-yl)-N-(4-formyl-3-hydroxybenzyl)benzamide] | 0.91 | 4.1 | < 0.1 µM | < 0.1 µM | 0.1 to 0.5 µM
2 | Nc1ncccc1-c1nc2ccc(-c3ccc(N4CCOCC4)cc3)nc2n1-c1ccc(CNC(=O)Cc2ccc(C=O)c(O)c2)cc1 [Example 1, N-(4-(2-(2-aminopyridin-3-yl)-5-(4-morpholinophenyl)-3H-imidazo[4,5-b]pyridin-3-yl)benzyl)-2-(4-formyl-3-hydroxyphenyl)acetamide] | 6.1 | 85 | < 0.1 µM | < 0.1 µM | > 0.5 µM
3 | CC(=O)Nc1cccc(-c2ccc3nc(-c4cccnc4N)n(-c4ccc(CNC(=O)Cc5ccc(C=O)c(O)c5)cc4)c3n2)c1 [Example 2, N-(4-(5-(3-acetamidophenyl)-2-(2-aminopyridin-3-yl)-3H-imidazo[4,5-b]pyridin-3-yl)benzyl)-2-(4-formyl-3-hydroxyphenyl)acetamide] | 3.1 | 19 | < 0.1 µM | 0.1 to 0.5 µM | > 0.5 µM
4 | Nc1ncccc1-c1nc2ccc(N3CCOCC3)nc2n1-c1ccc(CNC(=O)c2ccc(O)c(C=O)c2)cc1 [Example 3, N-(4-(2-(2-aminopyridin-3-yl)-5-morpholino-3H-imidazo[4,5-b]pyridin-3-yl)benzyl)-3-formyl-4-hydroxybenzamide] | 2.2 | 36 | 0.1 to 0.5 µM | 0.1 to 0.5 µM | > 0.5 µM
5 | Nc1ncccc1-c1nc2ccc(-c3ccccc3)nc2n1-c1ccc(CNC(=O)c2cc(C=O)c(O)cc2F)cc1 [Example 4, N-({4-[2-(2-aminopyridin-3-yl)-5-phenylimidazo[4,5-b]pyridin-3-yl]phenyl}methyl)-2-fluoro-5-formyl-4-hydroxybenzamide] | 2 | 38 | < 0.1 µM | < 0.1 µM | > 0.5 µM
6 | Nc1ncccc1-c1nc2ccc(-c3ccccc3)nc2n1-c1ccc(CNC(=O)Cc2ccc(C=O)c(O)c2C(F)(F)F)cc1 [Example 5, N-(4-(2-(2-aminopyridin-3-yl)-5-phenyl-3H-imidazo[4,5-b]pyridin-3-yl)benzyl)-2-(4-formyl-3-hydroxy-2-(trifluoromethyl)phenyl)acetamide] | 2.9 | 32 | < 0.1 µM | < 0.1 µM | > 0.5 µM
7 | Nc1ncccc1-c1nc2ccc(C3CC3C(=O)N3CCOCC3)nc2n1-c1ccc(CNC(=O)Cc2ccc(C=O)c(O)c2)cc1 (stereo not drawn) [Example 6, N-({4-[2-(2-aminopyridin-3-yl)-5-[2-(morpholine-4-carbonyl)cyclopropyl]imidazo[4,5-b]pyridin-3-yl]phenyl}methyl)-2-(4-formyl-3-hydroxyphenyl)acetamide] | 8.7 | 18 | 0.1 to 0.5 µM | > 0.5 µM | > 0.5 µM
8 | Nc1ncccc1-c1nc2ccc(C(F)F)nc2n1-c1ccc(CNC(=O)Cc2ccc(C=O)c(O)c2)cc1 [Example 7, N-({4-[2-(2-aminopyridin-3-yl)-5-(difluoromethyl)imidazo[4,5-b]pyridin-3-yl]phenyl}methyl)-2-(4-formyl-3-hydroxyphenyl)acetamide] | 5.8 | 110 | < 0.1 µM | 0.1 to 0.5 µM | > 0.5 µM
9 | Nc1ncccc1-c1nc2ccc(N3CC4CCC(C3)O4)nc2n1-c1ccc(CNC(=O)Cc2ccc(C=O)c(O)c2)cc1 [Example 8, N-({4-[2-(2-aminopyridin-3-yl)-5-{8-oxa-3-azabicyclo[3.2.1]octan-3-yl}imidazo[4,5-b]pyridin-3-yl]phenyl}methyl)-2-(4-formyl-3-hydroxyphenyl)acetamide] | 12 | 120 | < 0.1 µM | 0.1 to 0.5 µM | > 0.5 µM
10 | Nc1ncccc1-c1nc2ccc(OC3CC3)nc2n1-c1ccc(CNC(=O)Cc2ccc(C=O)c(O)c2)cc1 [Example 10, N-({4-[2-(2-aminopyridin-3-yl)-5-cyclopropoxyimidazo[4,5-b]pyridin-3-yl]phenyl}methyl)-2-(4-formyl-3-hydroxyphenyl)acetamide] | 3.9 | 160 | < 0.1 µM | < 0.1 µM | > 0.5 µM
11 | Nc1ncccc1-c1nc2ccc(-c3ccccc3)nc2n1-c1ccc(CC(=O)NC2(c3ccc(C=O)c(O)c3)CC2)cc1 [Example 11, 2-{4-[2-(2-aminopyridin-3-yl)-5-phenylimidazo[4,5-b]pyridin-3-yl]phenyl}-N-[1-(4-formyl-3-hydroxyphenyl)cyclopropyl]acetamide] | 3.1 | 28 | < 0.1 µM | < 0.1 µM | 0.1 to 0.5 µM
12 | Nc1ncccc1-c1nc2ccc(-c3cccc(N4CCOCC4)c3)nc2n1-c1ccc(CNC(=O)c2cc(F)c(O)c(C=O)c2)cc1 [Example 12, N-(4-(2-(2-aminopyridin-3-yl)-5-(3-morpholinophenyl)-3H-imidazo[4,5-b]pyridin-3-yl)benzyl)-3-fluoro-5-formyl-4-hydroxybenzamide] | 1.5 | 5.2 | < 0.1 µM | < 0.1 µM | 0.1 to 0.5 µM
13 | Nc1ncccc1-c1nc2ccc(-c3cccc(N4CCOCC4)c3)nc2n1-c1ccc(CNC(=O)Cc2ccc(C=O)c(O)c2Cl)cc1 [Example 13, N-({4-[2-(2-aminopyridin-3-yl)-5-[3-(morpholin-4-yl)phenyl]imidazo[4,5-b]pyridin-3-yl]phenyl}methyl)-2-(2-chloro-4-formyl-3-hydroxyphenyl)acetamide] | 1.2 | 3 | < 0.1 µM | < 0.1 µM | < 0.1 µM
14 | Cc1c(CC(=O)NCc2ccc(-n3c(-c4cccnc4N)nc4ccc(-c5ccccc5)nc43)cc2)ccc(C=O)c1O [Example 14, N-({4-[2-(2-aminopyridin-3-yl)-5-phenylimidazo[4,5-b]pyridin-3-yl]phenyl}methyl)-2-(4-formyl-3-hydroxy-2-methylphenyl)acetamide] | 3.3 | 36 | < 0.1 µM | < 0.1 µM | 0.1 to 0.5 µM
15 | Nc1ncccc1-c1nc2ccc(-c3ccccc3)nc2n1-c1ccc(CNC(=O)c2ccc(O)c(C=O)c2F)cc1 [Example 15, N-(4-(2-(2-aminopyridin-3-yl)-5-phenyl-3H-imidazo[4,5-b]pyridin-3-yl)benzyl)-2-fluoro-3-formyl-4-hydroxybenzamide] | 2 | 13 | < 0.1 µM | 0.1 to 0.5 µM | > 0.5 µM
16 | Nc1ncccc1-c1nc2ccc(C3CC3)nc2n1-c1ccc(CNCCc2ccc(C=O)c(O)c2)cc1 [Example 16, 4-{2-[({4-[2-(2-aminopyridin-3-yl)-5-cyclopropylimidazo[4,5-b]pyridin-3-yl]phenyl}methyl)amino]ethyl}-2-hydroxybenzaldehyde] | 2.4 | 41 | < 0.1 µM | 0.1 to 0.5 µM | > 0.5 µM
17 | CC(C)(O)c1ccc2nc(-c3cccnc3N)n(-c3ccc(CNC(=O)Cc4ccc(C=O)c(O)c4)cc3)c2n1 [Example 17, N-({4-[2-(2-aminopyridin-3-yl)-5-(2-hydroxypropan-2-yl)imidazo[4,5-b]pyridin-3-yl]phenyl}methyl)-2-(4-formyl-3-hydroxyphenyl)acetamide] | 10 | >110 | < 0.1 µM | > 0.5 µM | > 0.5 µM
18 | CC1(c2ccc3nc(-c4cccnc4N)n(-c4ccc(CNC(=O)Cc5ccc(C=O)c(O)c5)cc4)c3n2)CC1 [Example 18, N-({4-[2-(2-aminopyridin-3-yl)-5-(1-methylcyclopropyl)imidazo[4,5-b]pyridin 3-yl]phenyl}methyl)-2-(4-formyl-3-hydroxyphenyl)acetamide] | 6.1 | 150 | < 0.1 µM | 0.1 to 0.5 µM | > 0.5 µM
19 | Nc1ncccc1-c1nc2ccc(-c3cccc(N4CCOCC4)c3)nc2n1-c1ccc(CCNCc2ccc(C=O)c(O)c2)cc1 [Example 19, 4-(((4-(2-(2-aminopyridin-3-yl)-5-(3-morpholinophenyl)-3H-imidazo[4,5-b]pyridin-3-yl)phenethyl)amino)methyl)-2-hydroxybenzaldehyde] | 1.7 | 4.9 | < 0.1 µM | < 0.1 µM | < 0.1 µM
20 | Nc1ncccc1-c1nc2ccc(C3CC3)nc2n1-c1ccc(CNC(=O)Cc2ccc(C=O)c(O)c2Cl)cc1 [Example 22, N-({4-[2-(2-aminopyridin-3-yl)-5-cyclopropylimidazo[4,5-b]pyridin-3-yl]phenyl}methyl)-2-(2-chloro-4-formyl-3-hydroxyphenyl)acetamide] | 3.1 | 190 | < 0.1 µM | < 0.1 µM | > 0.5 µM
21 | CC(C)c1ccc2nc(-c3cccnc3N)n(-c3ccc(CNC(=O)Cc4ccc(C=O)c(O)c4)cc3)c2n1 [Example 23, N-({4-[2-(2-aminopyridin-3-yl)-5-isopropylimidazo[4,5-b]pyridin-3-yl]phenyl}methyl)-2-(4-formyl-3-hydroxyphenyl)acetamide] | 4.8 | 270 | < 0.1 µM | < 0.1 µM | > 0.5 µM
